5 compounds from US8663646B2, “P53 peptide vaccine” (priority 2007, dated 2014) can be followed below.

SMILES strings stand for the structures.

Assay [1] has as its target T1, HLA-A*0301 (Homo sapiens, UniProt P04439).
T1 construct: B-cell lines used are: CAA (A*0101), EKR (A*0301), BVR (A*1101), VIJF (A*2401); endogenous in cells; host or cells: B-cell line EKR
The assay can be described thus: Competition based cellular binding assay, HLA-A*0301 (B-cell line EKR).

The target of assay [2] is T1, HLA-A*0301. The assay can be described thus: Stability of peptide-HLA complex, binding at 4° C. and 20° C., HLA-A*0301. The note with it: for Peptide Binding Stability: HLA-A*0301, IC50 at 20° C. vs 4° C. As for the experimental part: (§1) Stability of other peptide-HLA complexes was preferably determined as follows. […] Peptides of >50% of the initial complexes was lost within 2 hours were considered unstable. […] The rest was designated as unstable peptide binding.
(§2) Peptides 8-11 residues in length were selected based on typical anchor residues for HLA-A*0101, A*0301, A*1101 and HLA-A*2401 (Rammensee H G et al). The capacity of peptides to bind was tested in a competition based cellular binding assay as previously described (van der Burg S H et al 1995). FL-labeled reference peptides were synthesized as Cys-derivative (van der Burg S H et al 1995). Fluorescence labeled reference peptides used were: YLEPAC(FL)AK (SEQ ID NO: 87) (HLA-A*0101) and KVFPC(FL)ALINK (SEQ ID NO: 88) (HLA-A*1101) (Sette A et al), KVFPC(FL)ALINK (SEQ ID NO: 89) (HLAA*0301) (van der Burg S H et al 1995) and RYLKC(FL)QQLL (SEQ ID NO: 90) (A*2401) (Dai L C et al). B-cell lines used are: CAA (A*0101), EKR (A*0301), BVR (A*1101), VIJF (A*2401). The relative binding capacity of the peptides is expressed as the peptide concentration to inhibit 50% (1050) of the binding of the reference peptide. […] Peptide stabilization for HLA-A*0201 was performed as previously described (van der Burg S H et al, 1996). Peptides of >50% of the initial complexes was lost within 2 hours were considered unstable. Stability of other peptide-HLA complexes was determined as follows. Peptide binding was performed at 4° C. and 20° C. and 1050 were determined. […] The rest was designated as unstable peptide binding.

The target in assay [3] is T2, 20S immuno-proteasomes from human B-LCL cell line (JY) (Homo sapiens, UniProt P28062+P28065+P40306).
T2 construct: purified from a mouse B-cell line (RMA) and a human B-LCL cell line (JY); endogenous in cells; host or cells: B-LCL JY cells; 20S proteasome purified from them
The assay can be described thus: In vitro proteasome mediated digestion of 30-mers, mass spectrometry, immunoproteasome JY. The note with it: 30 residue long precursor peptides. The class given is biochemical. As for the experimental part: (§3) In the context of the invention, “being inefficiently processed by a proteasome” preferably means that within the first hour of digestion by a proteasome less than 1% of total digested peptide is found. The processing by a proteasome is preferably assessed by incubating a purified proteasome, more preferably a human proteasome with a peptide comprising the potential CTL epitope (30 amino acid length approximately) in a proteasome digestion buffer during at least one hour at 37° C. The reaction is subsequently stopped by adding trifluoroacetic acid. Analysis of the digested peptides is performed with electrospray ionization mass spectrometry (see example 1). Even more preferably, the human proteasome is an immunoproteasome from B-LCL JY cells (Kessler J H et al. 2001).
(§4) 20S immuno-proteasomes were purified from a mouse B-cell line (RMA) and a human B-LCL cell line (JY) and 20S household proteasomes were purified from human tumor cell line (HeLa) as described (Kessler J H et al 2001). To assess kinetics, digestions were performed with different incubation periods as indicated. Briefly, peptides containing the (potential) CTL epitopes (30 mers, 20 μg) were incubated with 1 μg of purified proteasome at 37° C. for 1 h, 4 h and 24 h in 300 μl proteasome digestion buffer, trifluoroacetic acid (30 μl) was added to stop the digestion and samples were stored at −20° C. before mass spectrometric analysis. Electrospray ionization mass spectrometry was performed on a hybrid quadrupole time-of-flight mass spectromter, a Q-TOF (Micromass), equipped with an on-line nanoelectrospray interface with an approximate flow rate of […] as described (Kessler J H et al 2001). The peaks in the mass spectrum were searched in the digested precursor peptide using the Biolynx/proteins software (Micromass) supplied with the mass spectrometer. The intensity of the peaks in the mass spectra was used to establish the relative amounts of peptides generated after proteasome digestion. The relative amounts of the peptides are given as a percentage of the total amount of peptide digested by the proteasome at the indicated incubation time. Major cleavage sites are defined as more than >1% of total digested peptide within the first hour.

The target of assay [4] is T3, 20S immuno-proteasomes from mouse B-cell line (RMA) (Mus musculus, UniProt O35955+P28063+P28076).
T3 construct: 20S immuno-proteasomes were purified from a mouse B-cell line (RMA); endogenous in cells; host or cells: RMA cells; 20S proteasome purified from them
The assay can be described thus: In vitro proteasome mediated digestion of 30-mers, mass spectrometry, immunoproteasome RMA. The class given is biochemical. The note with it: 30 residue long precursor peptides. As for the experimental part: as §3, §4

Assay [5] concerns the target T4, HLA-A*1101 (Homo sapiens, UniProt P04439, A114D/D185E/E176A/F33Y/L180Q/S129P/T187R).
T4 construct: B-cell lines used are: CAA (A*0101), EKR (A*0301), BVR (A*1101), VIJF (A*2401); endogenous in cells; host or cells: B-cell line BVR
The assay can be described thus: Competition based cellular binding assay, HLA-A*1101 (B-cell line BVR). The note with it: for HLA binding Affinity (Table 5): HLA type A11; for Peptide Binding Affinity: HLA-A*1101, IC50 category.

Assay [6] addresses T4, HLA-A*1101. The assay can be described thus: Stability of peptide-HLA complex, binding at 4° C. and 20° C., HLA-A*1101. The note with it: for HLA binding Stability (Table 5): HLA type A11; for Peptide Binding Stability: HLA-A*1101, IC50 at 20° C. vs 4° C. As for the experimental part:
as §1, §2

On to `CC(C)C[C@H](NC(=O)[C@H](Cc1ccccc1)NC(=O)CNC(=O)[C@H](CC(C)C)NC(=O)[C@@H](N)CCCNC(=N)N)C(=O)N[C@@H](Cc1c[nH]cn1)C(=O)N[C@@H](CO)C(=O)NCC(=O)N[C@H](C(=O)N[C@@H](C)C(=O)N[C@@H](CCCCN)C(=O)O)[C@@H](C)O` [p53 110-120], for which the “Peptide Binding Affinity” value in assay [1] (HLA-A*0301, IC50 category) is “high”. The “Peptide Binding Stability” value in assay [2] is “+ (Stable peptides displayed IC50 at 20 °C that deviated <2 times of the IC50 at 4° C.)”. Besides, in assay [3], the “Proteasomal Cleavage of C-terminus, IP (JY)” value is “+ (Major cleavage sites are defined as more than >1% of total digested peptide within the first hour)”. Also, in assay [4], the “Proteasomal Cleavage of C-terminus, IP (RMA)” value is “+ (Major cleavage sites are defined as more than >1% of total digested peptide within the first hour)”.
Consider `CC(C)C[C@H](NC(=O)[C@@H](N)Cc1ccccc1)C(=O)N[C@@H](Cc1c[nH]cn1)C(=O)N[C@@H](CO)C(=O)NCC(=O)N[C@H](C(=O)N[C@@H](C)C(=O)N[C@@H](CCCCN)C(=O)O)[C@@H](C)O` [p53 113-120], for which the “HLA binding Affinity (Table 5)” value in assay [1] (HLA type A3) is reported as “int”. Moreover, in assay [1] (HLA-A*0301, IC50 category, read-out: Peptide Binding Affinity), the IC50 fell in the range of 5 to 15 µM. In addition, the “HLA binding Stability (Table 5)” value in assay [2] (HLA type A3) is on record as “− (The rest was designated as unstable peptide binding.)”. In assay [2], the “Peptide Binding Stability” value was “+/− (Peptides that displayed IC50 at 20 °C of more than twice the IC50 at 4 °C but IC50 < 15 μM were considered to bind with intermediate stability.)”. In addition, in assay [3], the “Proteasomal Cleavage of C-terminus, IP (JY)” value is reported as “+ (Major cleavage sites are defined as more than >1% of total digested peptide within the first hour)”. Also, in assay [4], the “Proteasomal Cleavage of C-terminus, IP (RMA)” value was “+ (Major cleavage sites are defined as more than >1% of total digested peptide within the first hour)”.
For the compound `C[C@@H](O)[C@H](NC(=O)[C@@H](N)CC(N)=O)C(=O)N[C@@H](CO)C(=O)N[C@@H](CO)C(=O)N[C@@H](CO)C(=O)N1CCC[C@H]1C(=O)N[C@@H](CCC(N)=O)C(=O)N1CCC[C@H]1C(=O)N[C@@H](CCCCN)C(=O)O` [p53 311-319], in assay [5], the “HLA binding Affinity (Table 5)” value is on record as “high” and the “Peptide Binding Affinity” value was “high”. In addition, in assay [6], the “HLA binding Stability (Table 5)” value was “+/− (Peptides that displayed IC50 at 20 °C of more than twice the IC50 at 4 °C but IC50 < 15 μM were considered to bind with intermediate stability.)” and the “Peptide Binding Stability” value is “+/− (Peptides that displayed IC50 at 20 °C of more than twice the IC50 at 4 °C but IC50 < 15 μM were considered to bind with intermediate stability.)”.
For the compound `C[C@@H](O)[C@H](NC(=O)[C@@H](N)CC(N)=O)C(=O)N[C@@H](CO)C(=O)N[C@@H](CO)C(=O)N[C@@H](CO)C(=O)N1CCC[C@H]1C(=O)N[C@@H](CCC(N)=O)C(=O)N1CCC[C@H]1C(=O)N[C@@H](CCCCN)C(=O)N[C@@H](CCCCN)C(=O)O` [p53 311-320], in assay [5], the “HLA binding Affinity (Table 5)” value is “high” and the “Peptide Binding Affinity” value is listed as “high”. Further, in assay [6], the “HLA binding Stability (Table 5)” value is “+/− (Peptides that displayed IC50 at 20 °C of more than twice the IC50 at 4 °C but IC50 < 15 μM were considered to bind with intermediate stability.)” and the “Peptide Binding Stability” value is “+/− (Peptides that displayed IC50 at 20 °C of more than twice the IC50 at 4 °C but IC50 < 15 μM were considered to bind with intermediate stability.)”.
Take `C[C@@H](O)[C@H](N)C(=O)N[C@@H](CO)C(=O)N[C@@H](CO)C(=O)N[C@@H](CO)C(=O)N1CCC[C@H]1C(=O)N[C@@H](CCC(N)=O)C(=O)N1CCC[C@H]1C(=O)N[C@@H](CCCCN)C(=O)O` [p53 312-319]: in assay [5], the “HLA binding Affinity (Table 5)” value is on record as “high” and the “Peptide Binding Affinity” value is listed as “high”. In addition, in assay [6], the “HLA binding Stability (Table 5)” value was “+/− (Peptides that displayed IC50 at 20 °C of more than twice the IC50 at 4 °C but IC50 < 15 μM were considered to bind with intermediate stability.)” and the “Peptide Binding Stability” value is “+/− (Peptides that displayed IC50 at 20 °C of more than twice the IC50 at 4 °C but IC50 < 15 μM were considered to bind with intermediate stability.)”.
